One assay has as its target Rac-1 (Homo sapiens (Human), UniProt P63000). In words: Rac inhibition assay (labeled GTP). The class given is binding. The conditions noted are these: read-out: Rac-1 % Inh.
The next assay concerns the target Rho-A (Homo sapiens (Human), UniProt P61586). Put plainly: Rho inhibition assay (labeled GTP). The class given is binding. The conditions noted are these: read-out: Rho-A % Inh.
For assay [1], the target named is KRas G12D/Q61H double mutant (Homo sapiens (Human), UniProt P01116, G12D/Q61H). In words: Ras GTP binding domain inhibition assay (labeled GTP). The conditions noted are these: at 20 μM; read-out: KRas G12D Q61H % Inh. The gist of the method:
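His-tagged KRas protein (3-10 μg/ml) was captured overnight at 4° C on nickel-coated wells in 50 mM Tris pH 7.5, 1 mM MgCl2, 1 mM DTT. Bound labeled GTP was read by fluorescence after washing.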

Sequence of Rho-A (P61586 whole entry, the tested form may be a part): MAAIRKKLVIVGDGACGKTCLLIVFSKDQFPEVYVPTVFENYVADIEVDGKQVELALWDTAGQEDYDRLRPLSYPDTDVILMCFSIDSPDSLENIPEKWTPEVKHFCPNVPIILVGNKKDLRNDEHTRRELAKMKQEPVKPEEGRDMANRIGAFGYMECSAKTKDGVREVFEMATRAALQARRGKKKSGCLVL
Sequence of KRas G12D/Q61H double mutant (P01116-2 other isoform, or with tags, fused parts or gaps G12D/Q61H): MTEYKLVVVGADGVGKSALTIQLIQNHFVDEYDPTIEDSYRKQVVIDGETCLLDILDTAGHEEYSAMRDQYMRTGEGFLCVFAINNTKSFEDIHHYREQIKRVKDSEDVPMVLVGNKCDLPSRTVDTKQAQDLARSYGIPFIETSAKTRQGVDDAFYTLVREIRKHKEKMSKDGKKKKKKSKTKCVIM

As for `Cn1cnc(-c2nc(O)c3c(-c4ccccc4)c(-c4ccncc4)sc3n2)c1` [drawing 3846], the inhibition at 20 µM is 0% on Rac-1, 0% on Rho-A and 1 to 25% in assay [1].
As to `O=C(c1csc2c(O)nc(-c3ccccn3)nc12)N1CCNC(c2ccc(F)cc2)C1` (stereo not drawn) [drawing 3696], the inhibition at 20 µM fell in the range of 76 to 100% at Rac-1, 76 to 100% on Rho-A and 1 to 25% in assay [1].
`Oc1nc(-c2ccccn2)nc2c3c(sc12)CNC3` [drawing 3796]: the inhibition at 20 µM fell in the range of 76 to 100% at Rac-1, 76 to 100% on Rho-A and 51 to 75% in assay [1].
`O=C(c1csc2c(O)nc(-c3ccccn3)nc12)N1CCNC(Cc2ccccc2)C1` (stereo not drawn) [drawing 3667]: the inhibition at 20 µM lay in the range of 76 to 100% at Rac-1, 76 to 100% at Rho-A and 25 to 50% in assay [1].
As for `Cc1ccc(-c2cc3nc(-c4ccccn4)nc(O)c3s2)cc1` [drawing 3873], the values for the inhibition at 20 µM (at Rac-1; on Rho-A; in assay [1]) were 1 to 25%, 0% and 0%, respectively.
`COCCCCN(C)C(=O)c1csc2nc(-c3ccccn3)nc(N3CCOCC3)c12` [drawing 3679]: the inhibition at 20 µM fell in the range of 76 to 100% on Rac-1, 51 to 75% at Rho-A and 1 to 25% in assay [1].
On the same counts, the results for `Oc1nc(-c2ccccn2)nc2c(-c3ccc(OC4CCOC4)cc3)csc12` (stereo not drawn) [drawing 3734] are 51 to 75%, 76 to 100% and 25 to 50%.
On the same counts, the results for `O=C(c1csc2c(O)nc(-c3ccccn3)nc12)N1CCN(c2ccc(F)cc2F)CC1` [drawing 3649] are 76 to 100%, 51 to 75% and 51 to 75%.
For `Nc1nc(O)c2sc(-c3cccc(C(=O)NCc4ncc[nH]4)c3)cc2n1` [drawing 3863] the same measures were 0%, 0% and 0%.
For the compound `N#Cc1ccc(CCNC(=O)c2csc3nc(-c4ccccn4)nc(N4CCOCC4)c23)cc1` [drawing 3639], the inhibition at 20 µM at Rac-1 was 25 to 50%; on Rho-A, 25 to 50%; in assay [1], 1 to 25%.
Take `Cc1ccccc1C1CN(C(=O)c2csc3c(O)nc(-c4ccccn4)nc23)CCN1` (stereo not drawn) [drawing 3664]: the inhibition at 20 µM at Rac-1 lay within 76 to 100%; at Rho-A, 76 to 100%; in assay [1], 25 to 50%.
On to `COc1ccccc1C1CN(C(=O)c2csc3c(O)nc(-c4ccccn4)nc23)CCN1` (stereo not drawn) [drawing 3661], for which the figures for the inhibition at 20 µM (on Rac-1; on Rho-A; in assay [1]) were 1 to 25%, 76 to 100% and 25 to 50%, respectively.
On the same counts, the results for `COC(=O)c1c(C)sc2c(N)nc(-c3ccccn3)nc12` [drawing 3818] are 76 to 100%, 76 to 100% and 51 to 75%.
For `N#Cc1ccc2c(c1)CCCC2C(=O)Nc1ccnc(-c2ccccn2)n1` (stereo not drawn) [drawing 3727] the same measures were 51 to 75%, 51 to 75% and 51 to 75%.
For `COCC(C)Nc1nc(-c2ccccn2)nc(C(=O)NCCCc2c[nH]cn2)c1Oc1ccccc1` (stereo not drawn) [drawing 3868] the same measures were 25 to 50%, 25 to 50% and 1 to 25%.
Regarding `O=C(NCCc1ccnc(O)c1)c1csc2nc(-c3ccccn3)nc(N3CCOCC3)c12` [drawing 3672], the inhibition at 20 µM at Rac-1 is 25 to 50%; on Rho-A, 25 to 50%; in assay [1], 1 to 25%.
With `COc1ccc(CCNC(=O)c2csc3nc(-c4ccccn4)nc(N4CCS(=O)(=O)CC4)c23)cn1` [drawing 3725], the figures for the inhibition at 20 µM (at Rac-1; at Rho-A; in assay [1]) were 25 to 50%, 1 to 25% and 25 to 50%, respectively.
As to `Oc1nc(-c2ccccn2)nc2c(-c3ccc(CN4CCOCC4)cc3)csc12` [drawing 3754], the values for the inhibition at 20 µM (on Rac-1; at Rho-A; in assay [1]) were 51 to 75%, 25 to 50% and 25 to 50%, respectively.
On to `CC(C)(C)c1sc2c(O)nc(-c3ccccn3)nc2c1Br` [drawing 3872], for which the inhibition at 20 µM (at Rac-1; on Rho-A; in assay [1]) was 25 to 50% each time.
`COc1nc(-c2ccccn2)nc2c(C3CC3)csc12` [drawing 3808]: the inhibition at 20 µM at Rac-1 was 0%; on Rho-A it was 0%; in assay [1], 1 to 25%.
In the case of `Oc1nc(-c2ccccn2)nc2c(-c3ccc(OC4CCCCC4)cc3)csc12` [drawing 3759], the inhibition at 20 µM at Rac-1 is 51 to 75%; on Rho-A it was 51 to 75%; in assay [1], 25 to 50%.
Consider `COC(=O)c1nc(-c2ccccn2)nc(O)c1O` [drawing 3865], for which the inhibition at 20 µM on Rac-1 lay in the range of 76 to 100%; on Rho-A, 76 to 100%; in assay [1], 51 to 75%.
As for `O=C(NCCc1cncs1)c1csc2nc(-c3ccccn3)nc(N3CCOCC3)c12` [drawing 3638], the inhibition at 20 µM was in the range of 51 to 75% on Rac-1, 25 to 50% on Rho-A and 1 to 25% in assay [1].
For `CNS(=O)(=O)CCCNC(=O)c1csc2nc(-c3ccccn3)nc(N3CCOCC3)c12` [drawing 3680] the same measures were 76 to 100%, 51 to 75% and 1 to 25%.
On the same counts, the results for `Cc1c(Br)sc2c(O)nc(-c3ccccn3)nc12` [drawing 3793] are 51 to 75%, 51 to 75% and 25 to 50%.
On the same counts, the results for `COc1ncc(CCNC(=O)c2csc3nc(-c4ccccn4)nc(N4CCOCC4)c23)cn1` [drawing 3637] are 51 to 75%, 51 to 75% and 1 to 25%.
`COc1cnc(C2CCCN2)nc1O` (stereo not drawn) [drawing 3788]: the inhibition at 20 µM was 0% at Rac-1, 1 to 25% at Rho-A and 0% in assay [1].
Consider `Oc1nc(-c2ccccn2)nc2c(-c3ccc(OC4CCCC4)cc3)csc12` [drawing 3735], for which the inhibition at 20 µM (on Rac-1; at Rho-A; in assay [1]) was 25 to 50% in each case.
As to `CN(CCc1cccc(C#N)c1)C(=O)c1csc2nc(-c3ccccn3)nc(N3CCOCC3)c12` [drawing 3677], the values for the inhibition at 20 µM (on Rac-1; at Rho-A; in assay [1]) were 76 to 100%, 51 to 75% and 1 to 25%, respectively.
For `Cc1sc2nc(-c3ccccn3)nc(N)c2c1Br` [drawing 3803] the same measures were 25 to 50%, 51 to 75% and 25 to 50%.
For `Cc1sc2c(N)nc(-c3ccccn3)nc2c1-c1ccccc1` [drawing 3709] the same measures were 25 to 50%, 25 to 50% and 25 to 50%.
For `O=C(c1csc2c(O)nc(-c3ccccn3)nc12)N1CCN(Cc2cccc(O)c2)CC1` [drawing 3629] the same measures were 76 to 100%, 76 to 100% and 76 to 100%.
For the compound `Cc1cnc(-c2ccccn2)nc1NC(=O)C(C)c1ccc(C#N)cc1` (stereo not drawn) [drawing 3686], the values for the inhibition at 20 µM (at Rac-1; on Rho-A; in assay [1]) were 76 to 100%, 51 to 75% and 1 to 25%, respectively.
